Key:
[1] = tested on: p15^INK4B; test: Quantitative RT-PCR of p15INK4B mRNA in leukemia cells; assay type: cell-based; details: for increase of p15INK4B expression level: MV4-11 cells, 10 μM curcumin
Procedure: (§1) Cell Cycle and Apoptosis Analysis: MV4-11, ML-1, HL-60 and K562 leukemia cell lines were cultured in RPMI medium (VWR International, Inc., West Chester, Pa.) supplemented with 10% fetal bovine serum (Invitrogen, Carlsbad, Calif.) and 1% (v/v) penicillin/streptomycin (Invitrogen Life Technologies; Carlsbad, Calif.) antibiotic solution at 37° C. in an incubator under 5% CO2 atmosphere. For the ex-vivo studies, mononuclear cells obtained from bone marrow (BM) of patient with AML were prepared by Ficoll-Hypaque (Nygaard) gradient centrifugation and cultured with serum-free expansion medium (SFEM) (StemCell technologies, Vancouver, BC) supplemented with GM-CSF (50 ng/ml), IL-3 (20 ng/ml), IL-6 (20 ng/ml) and SCF ([…]). […] The cell cycle and apoptosis of MV4-11 cells was analyzed on a BD FACS Calibur (Beckman Coulter, Fullerton, Calif.) according to the standard protocol provided by the manufacturer.
(§2) Quantitative RT-PCR was used to quantify the mRNA levels of DNMT1, DNMT3a, DNMT3b, p15INK4B and p21. Total RNA was extracted with Trizol reagent (Invitrogen, Carlsbad, Calif.) and reverse transcribed by reverse transcriptase (Invitrogen). Quantitative real-time PCR reactions were performed in triplicate using Taqman gene expression assay (Applied Biosystems) with an ABI prism 7700 detector (Applied Biosystems). The target gene values were normalized to the values of internal control GAPDH or 18 S, and expressed as relative percent change (100×2^(˜ΔΔCt)) over non-treated samples.

[2] = Solubility of curcumin in different PEGs and temperatures; assay type: physicochemical
Procedure: The pharmaceutical compositions may be prepared by dissolving solid curcumin in an excipient. […] In one embodiment, the mixture is stirred at an elevated temperature until a homogenous solution is obtained. For example, the mixture may be heated to a temperature within the range from about 30° C. to about 150° C.; from about 50° C. to about 120° C.; from about 60° C. to about 100° C. […]

[3] = tested on: HL-60 cells; test: Cell viability / anti-proliferation; assay type: cell-based
[4] = tested on: MV4-11 cells; test: Apoptosis analysis; assay type: cell-based; details: 10 μM curcumin
Procedure: as §1

[5] = Stability of curcumin in reconstituted solution in auto-sampler at 4° C; assay type: physicochemical; details: auto-sampler 4° C, up to 8 hours
Text: Therefore, all mouse blood and plasma samples have to be processed on ice to avoid potential degradation for its pharmacokinetic studies.

[6] = tested on: p15^INK4B promoter region; test: DNA methylation analysis of the p15INK4B promoter region (LC-MS/MS); assay type: cell-based; details: MV4-11 cells, 10 μM curcumin, 72 hours
Procedure: Genomic DNA isolated from MV4-11 cells was treated with bisulfite using the Epi methylation Kit (Qiagen, Minneapolis, Minn.) according to the instruction from the manufacturer and followed by PCR amplification as follows. The sequences of p15^INK4B primers were: forward 5′-GGGAGGGTAATGAAGTTGAGTTTA-3′ (SEQ ID NO. 1), and reverse 5′-ACCCTAAAACCCCAACTACCTAAAT-3′ (SEQ ID NO. 2). PCR amplifications were performed as follows: 95° C. for 5.5 min, 55° C. for 30s for 5 cycles, and 52° C. for 30 s for 38 cycles, 72° C. for 30s for 38 cycles, with a final step at 72° C. for 1 min. PCRs were carried out in a 100 μl volume containing 10 μl of buffer (10×), 2 μL of each primer (10 μM), 2 μL of (10 mM) dNTPs, 2 U of Platinum Taq DNA polymerase (Invitrogen, Carlsbad, Calif.), 70.6 μL ddH2O and 10 μL of bisulfite treated DNA in a GeneAmp 9700 thermal cycler (Perkin-Elmer, Norwalk, Conn.). PCR products were purified using QIAquick columns and eluted in water. A 500 ng aliquot of the PCR product was incubated with 25 UM. […] Fully methylated PCR products were purified using the QIAquick PCR Purification kit (Qiagen, Minneapolis, Minn.), according to the manufacturer's instructions and 200 ng of the purified DNA was hydrolyzed and the concentrations of 5mdC and 2dC in the hydrolysate were measured by LC-MS/MS using the conditions as described previously.

[7] = tested on: DNMT1; test: Quantitative RT-PCR of DNMT1 transcripts in MV4-11 cells; assay type: cell-based; parameters: dose or concentration left out as unconfirmed; details: curcumin
Procedure: as §1
as §2, with “Total RNA was extracted with Trizol reagent (Invitrogen, Carlsbad, Calif.) and reverse transcribed by reverse transcriptase (Invitrogen).” left out

[8] = tested on: DNMT3a; test: Western blot of DNMT3a protein in MV4-11 cells; assay type: cell-based
Procedure: Cell Cycle and Apoptosis Analysis: MV4-11, ML-1, HL-60 and K562 leukemia cell lines were cultured in RPMI medium (VWR International, Inc., West Chester, Pa.) supplemented with 10% fetal bovine serum (Invitrogen, Carlsbad, Calif.) and 1% (v/v) penicillin/streptomycin (Invitrogen Life Technologies; Carlsbad, Calif.) antibiotic solution at 37° C. in an incubator under 5% CO2 atmosphere. […] The cell cycle and apoptosis of MV4-11 cells was analyzed on a BD FACS Calibur (Beckman Coulter, Fullerton, Calif.) according to the standard protocol provided by the manufacturer.
Cells or tumor tissues were homogenized and lysed in ice-cold lysis buffer (20 mM, pH 7.0 HEPES, 150 mM NaCl, 0.1% NP40 supplemented with 1 mM β-glycerophosphate, 1 mM Na3VO4, 1 mM NaF, 1 mM benzamide and 1 mM phenylmethylsulfonyl fluoride) with protease inhibitors (Protease Inhibitor cocktail Set III, Calbiochem-Novabiochem Corporation, La Jolla, Calif.), and incubated on ice for 20 mM. […] The immunoblotted proteins were detected by ECL reagent (GE Healthcare Bio-Sciences Corp., Piscataway, N.J.).

[9] = tested on: K562; test: Cytotoxicity; assay type: cell-based; details: Homo sapiens

**Q.** For COc1cc(/C=C/C(=O)CC(=O)/C=C/c2ccc(O)c(OC)c2)ccc1O [curcumin], which p15INK4B reactivation ([1]; AML primary blast cells) is on record?
**A.** reactivated

**Q.** What about the p15INK4B reactivation ([1]; HL-60 leukemia cells) of the same molecule?
**A.** reactivated

**Q.** What about the “increase of p15INK4B expression level” value ([1]; 48 hours) of the same molecule?
**A.** approximately 12 fold

**Q.** And the “increase of p15INK4B expression level” value ([1]; 72 hours)?
**A.** ~43 fold

**Q.** And the “amount of curcumin that can dissolve” value ([2]; in 1 mL PEG 400 at 100° C)?
**A.** about 200 mg

**Q.** And the “Final Conc. 100° C.” value ([2]; solubility in PEG 200, 100° C)?
**A.** 193.1 mg/mL

**Q.** And the “Final Conc. 100° C.” value ([2]; solubility in PEG 300, 100° C)?
**A.** 252.3 mg/mL

**Q.** And the “Final Conc. 60° C.” value ([2]; solubility in PEG 400, 60° C)?
**A.** 131.4 mg/mL

**Q.** What about the “Final Conc. 100° C.” value ([2]; solubility in PEG 400, 100° C) of the same molecule?
**A.** 195 mg/mL

**Q.** And the “Final Conc. @ RT” value ([2]; solubility in PEG 400, RT)?
**A.** 42.7 mg/mL

**Q.** What about the “Final Conc. 100° C.” value ([2]; solubility in PEG 500, 100° C) of the same molecule?
**A.** 218.9 mg/mL

**Q.** What about the “Final Conc. 60° C.” value ([2]; solubility in PEG 600, 60° C) of the same molecule?
**A.** 136.0 mg/mL

**Q.** And the “Final Conc. 100° C.” value ([2]; solubility in PEG 600, 100° C)?
**A.** 241.8 mg/mL

**Q.** What about the “Final Conc. @ RT” value ([2]; solubility in PEG 600, RT) of the same molecule?
**A.** 42.0 mg/mL

**Q.** And the “cell viability decreased to” value ([3]; HL-60 cells (FIG. 13B))?
**A.** 60-70%

**Q.** What about the IC50 ([3]; Homo sapiens, HL-60) of the same molecule?
**A.** 10 to 15 µM

**Q.** What about the “portion of apoptotic cells” value [4] of the same molecule?
**A.** ~30%

**Q.** And the “% of original concentrations remaining” value [5]?
**A.** > 85%

**Q.** And the “decrease of p15INK4B promoter methylation level” value [6]?
**A.** about 40%

**Q.** What about the “decrease in the level of DNMT1 transcripts compared to untreated control” value ([7]; 48 hours) of the same molecule?
**A.** 70%

**Q.** And the “decrease in the level of DNMT1 transcripts compared to untreated control” value ([7]; 72 hours)?
**A.** 90%

**Q.** And the “DNMT3a protein level reduction” value [8]?
**A.** 50%

**Q.** What about the IC50 [9] of the same molecule?
**A.** 10.4 µM
